Literature values as cited in patent US6462088B1, “Disinfecting preparation containing chlorine in alcohol” (priority 1998, dated 2002).

Details: 25° C., aqueous solution; for E0 standard oxidation potential, Ref. b): Ullmann's Encyclopedia

Compound | E0 standard oxidation potential, Ref. a) (Rice and Gomez-Taylor) [V] | E0 standard oxidation potential, Ref. b) [V]
OCl [Hypochlorous acid] | 1.49 | 1.50
Hypochlorite ion |  | 0.90
